In this assay the target is NS5B polymerase (Hepatitis C virus genotype 1b, UniProt P26663). Put plainly: biochemical. The following applies: NS5B polymerase inhibition; 20 nM enzyme, 75 min at 28° C. The gist of the method:
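20 nM enzyme with 250 nM biotinylated oligo(rG13)/poly rC, 0.6 μM GTP plus [α-33P]GTP, in pH 7.5 Tris buffer with 5 mM MgCl2, 75 min at 28 °C. Incorporated radioactivity counted on streptavidin plates; IC50 from 4-parameter fit versus uninhibited control.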

The structures appear in SMILES notation. Counter-ions that a name gives are not always drawn.

Chain of NS5B polymerase (P26663 2420-3010): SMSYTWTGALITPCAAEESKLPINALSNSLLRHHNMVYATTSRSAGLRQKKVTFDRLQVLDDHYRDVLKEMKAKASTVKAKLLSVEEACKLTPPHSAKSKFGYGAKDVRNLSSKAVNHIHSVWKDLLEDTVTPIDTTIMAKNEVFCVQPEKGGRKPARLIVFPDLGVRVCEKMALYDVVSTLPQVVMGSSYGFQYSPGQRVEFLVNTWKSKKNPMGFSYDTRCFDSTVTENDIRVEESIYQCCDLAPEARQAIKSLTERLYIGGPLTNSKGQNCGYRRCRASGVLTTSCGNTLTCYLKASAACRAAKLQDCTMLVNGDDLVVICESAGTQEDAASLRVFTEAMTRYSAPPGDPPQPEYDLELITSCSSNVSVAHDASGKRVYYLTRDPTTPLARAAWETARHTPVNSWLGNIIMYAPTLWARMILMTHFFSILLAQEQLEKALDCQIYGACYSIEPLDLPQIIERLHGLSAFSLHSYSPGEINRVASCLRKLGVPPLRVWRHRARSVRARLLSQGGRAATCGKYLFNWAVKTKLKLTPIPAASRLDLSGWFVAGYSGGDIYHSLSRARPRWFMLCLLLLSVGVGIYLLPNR

As for `O=C1C(C2=NS(=O)(=O)c3cc(NS(=O)(=O)Cc4ccccc4)ccc3N2)=C(O)[C@@H]2CCC[C@@H]2N1Cc1ccc(F)cc1` [Example 52, (4aR,7aS)-N-{3-[1-(4-Fluoro-benzyl)-4-hydroxy-2-oxo-2,4a,5,6,7,7a-hexahydro-1H-[1]pyrindin-3-yl]-1,1-dioxo-1,4-dihydro-1λ^6-benzo[1,2,4]thiadiazin-7-yl}-C-phenyl-methanesulfonamide], the IC50 (in general, the midpoint of a concentration-inhibition curve) lay within 100 to 1000 nM.

For the compound `CS(=O)(=O)Nc1ccc2c(c1)S(=O)(=O)N=C(C1=C(O)C3CCCCCC3NC1=O)N2` (stereo not drawn) [Example 59, N-[3-(4-Hydroxy-2-oxo-2,4a,5,6,7,8,9,9a-octahydro-1H-cyclohepta[b]pyridin-3-yl)-1,1-dioxo-1,4-dihydro-1λ^6-benzo[1,2,4]thiadiazin-7-yl]-methanesulfonamide], the half-maximal inhibitory concentration (IC50) was in the range of 1000 to 100000 nM.

Compound `CS(=O)(=O)Nc1ccc2c(c1)S(=O)(=O)N=C(C1=C(O)C3CCCCCC3N(NC3CCC3)C1=O)N2` (stereo not drawn) [Example 60, N-[3-(1-Cyclobutylamino-4-hydroxy-2-oxo-2,4a,5,6,7,8,9,9a-octahydro-1H-cyclohepta[b]pyridin-3-yl)-1,1-dioxo-1,4-dihydro-1λ^6-benzo[1,2,4]thiadiazin-7-yl]-methanesulfonamide trifluoroaceticacid salt] came in with an IC50 of 20 to 100 nM.

For the origin of these results see US20090111798A1, “5,6-DIHYDRO-1H-PYRIDIN-2-ONE COMPOUNDS” (priority 2006, published 2009).
